Activity calls are given as the source filed them.
Legend:
[1] = target: DNA dC->dU-editing enzyme APOBEC-3A (Homo sapiens, UniProt P31941); assay: SAR analysis of small molecule inhibitors of APOBEC3A DNA Deaminase via a fluorescence-based single-stranded DNA deaminase assay - Set 2.; format: functional; settings: read-out: IC50_Mean
[2] = target: DNA dC->dU-editing enzyme APOBEC-3G (Homo sapiens, UniProt Q9HC16); assay: SAR analysis of small molecule inhibitors of APOBEC3G DNA Deaminase via a fluorescence-based single-stranded DNA deaminase assay - Set 2.; format: functional; settings: read-out: IC50_Mean
DNA dC->dU-editing enzyme APOBEC-3G, sequence (Q9HC16 whole entry): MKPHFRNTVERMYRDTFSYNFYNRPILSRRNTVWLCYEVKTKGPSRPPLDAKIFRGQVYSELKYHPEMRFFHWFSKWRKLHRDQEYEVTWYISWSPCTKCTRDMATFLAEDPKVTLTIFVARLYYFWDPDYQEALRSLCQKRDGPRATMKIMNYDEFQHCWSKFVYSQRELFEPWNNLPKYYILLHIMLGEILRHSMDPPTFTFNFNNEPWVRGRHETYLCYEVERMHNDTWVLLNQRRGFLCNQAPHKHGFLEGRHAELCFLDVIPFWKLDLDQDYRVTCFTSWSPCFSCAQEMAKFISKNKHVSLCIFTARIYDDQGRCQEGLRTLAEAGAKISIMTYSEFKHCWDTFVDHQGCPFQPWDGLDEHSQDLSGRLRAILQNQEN

DNA dC->dU-editing enzyme APOBEC-3A, sequence (P31941 whole entry): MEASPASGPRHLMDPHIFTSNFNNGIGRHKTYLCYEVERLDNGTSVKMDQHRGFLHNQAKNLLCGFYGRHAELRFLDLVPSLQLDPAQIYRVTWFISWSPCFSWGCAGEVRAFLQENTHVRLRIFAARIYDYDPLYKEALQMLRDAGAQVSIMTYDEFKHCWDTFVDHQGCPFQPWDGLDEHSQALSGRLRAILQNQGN

SMILES: O=C(NCc1ccccc1)c1cc2ncc(Br)cn2n1
- IC50 [1]: > 99 µM (inactive)
- IC50 [2]: > 99 µM (inactive)
